According to ChEMBL document CHEMBL5346907, “Discovery of a novel oral type Ⅰ CDK8 inhibitor against acute myeloid leukemia” (Eur J Med Chem, 2023):

Tests used:
Format in all cases: functional
[1] = system: MOLM-13; experiment: Antiproliferative activity against human MOLM-13 cells incubated for 48 hrs by CCK8 assay
[2] = system: MV4-11; experiment: Antiproliferative activity against human MV4-11 cells incubated for 48 hrs by CCK8 assay
[3] = system: MGC-803; experiment: Antiproliferative activity against human MGC-803 cells incubated for 48 hrs by CCK8 assay
[4] = system: MDA-MB-231; experiment: Antiproliferative activity against human MDA-MB-231 cells incubated for 48 hrs by CCK8 assay
[5] = system: A-375; experiment: Antiproliferative activity against human A-375 cells incubated for 48 hrs by CCK8 assay
[6] = system: A549; experiment: Antiproliferative activity against human A549 cells incubated for 48 hrs by CCK8 assay
[7] = system: GES1; experiment: Antiproliferative activity against human GES1 cells incubated for 48 hrs by CCK8 assay

GI50 [1]: 0.02 µM
GI50 [2]: 0.07 µM
GI50 [3]: 16.3 µM
GI50 [4]: 9.6 µM
GI50 [5]: 5.9 µM
GI50 [6]: 12.1 µM
SMILES: Cc1c(Br)c(Br)c2c3c1nc(N1CCNCC1)n3CCC2 [SEL-120 FREE BASE]
GI50 [7]: 55.3 µM
